Among the data in patent US10875895B2, “Antibacterial cell-penetrating peptides” (Purdue Research Foundation, priority 2018, dated 2020) are MIC values, retold here.

One test concerns S. aureus RN 4220. The test can be described thus: MIC, broth microdilution (CLSI). The test is classed as cell-based. The procedure:
(§1) The minimum inhibitory concentration (MIC) of the peptides (in uM/ml) and control antibiotics (vancomycin and gentamicin) in μg/mL, were determined using the broth microdilution method according to the guidelines of the Clinical and Laboratory Standards Institute (CLSI) guidelines. See CLSI. 2007. Methods for dilution antimicrobial susceptibility tests for bacteria that grow aerobically; approved standard M7-A7. CLSI, Wayne, Pa.
(In general: Dilution methods test growth across graded concentrations, often in twofold steps.)

The test system of another test is S. flexneri 1a. The test can be described thus: MIC, broth microdilution (CLSI). The test is classed as cell-based. Particulars: enteric pathogens. The procedure:
as §1

≈ marks a conversion by molar mass, not a printed value. Where two headings read alike, the source gives them in different places. Non-standard residues stand in square brackets, D forms with d. Residues, ends and D or L forms follow the SMILES beside them. *: point of attachment. X1 = O=C(O)c1cc(C(=O)*)ccc1-c1c2ccc(=O)cc-2oc2cc(O)ccc12; Pro(trans-4-guanidino) = N=C(N)N[C@H]1CN[C@H](C(=O)O)C1; Propyl(3-guanidino) = N=C(N)NCCC*; Hyp = O=C(O)[C@@H]1C[C@@H](O)CN1; Isobutyl = CC(C)C*

In general, MIC refers to the least concentration at which growth counts as inhibited.

In the case of `CC(C)CO[C@@H]1C[C@@H](C(=O)N2C[C@H](NC(=N)N)C[C@H]2C(=O)N2C[C@H](NC(=N)N)C[C@H]2C(=O)N2C[C@H](OCC(C)C)C[C@H]2C(=O)N2C[C@H](NC(=N)N)C[C@H]2C(=O)N2C[C@H](NC(=N)N)C[C@H]2C(=O)N2C[C@H](OCC(C)C)C[C@H]2C(=O)N2C[C@H](NC(=N)N)C[C@H]2C(=O)N2C[C@H](NC(=N)N)C[C@H]2C(=O)N2C[C@H](OCC(C)C)C[C@H]2C(=O)N2C[C@H](NC(=N)N)C[C@H]2C(=O)N2C[C@H](NC(=N)N)C[C@H]2C(=O)N2C[C@H](OCC(C)C)C[C@H]2C(N)=O)N(C(=O)CNC(=O)c2ccc(-c3c4ccc(=O)cc-4oc4cc(O)ccc34)c(C(=O)O)c2)C1` [Example 1] (X1-G[Hyp](Isobutyl)[Pro(trans-4-guanidino)][Pro(trans-4-guanidino)][Hyp](Isobutyl)[Pro(trans-4-guanidino)][Pro(trans-4-guanidino)][Hyp](Isobutyl)[Pro(trans-4-guanidino)][Pro(trans-4-guanidino)][Hyp](Isobutyl)[Pro(trans-4-guanidino)][Pro(trans-4-guanidino)][Hyp](Isobutyl)-NH2), the MIC in the test with S. aureus RN 4220 was found to be 2 µM (≈ 5.02 µg/mL); against S. flexneri 1a, 1 µM (≈ 2.51 µg/mL); in the test on E. faecium 700221 (700221), 1 µM (≈ 2.51 µg/mL); in the test with S. aureus NRS 384 (NRS 384), 2 µM (≈ 5.02 µg/mL); against K. pneumoniae 1706 (1706), 8 µM (≈ 20.1 µg/mL); in the test on K. pneumonia NR 41920, 4 µM (≈ 10 µg/mL). Also, the MIC in the test on K. pneumonia NR 41928 came to 1 µM (≈ 2.51 µg/mL); against A. baumannii 1605 (1605) it was 0.5 µM (≈ 1.26 µg/mL); against P. aeruginosa 50573 (50573), 2 µM (≈ 5.02 µg/mL); against E. cloacae 1134 (1134), 2 µM (≈ 5.02 µg/mL); against S. aureus NRS 383 (NRS 383), 2 µM (≈ 5.02 µg/mL); against S. aureus NRS 382 (NRS 382), 2 µM (≈ 5.02 µg/mL). Further, the MIC was found to be 1 µM (≈ 2.51 µg/mL) in the test on S. aureus ATCC 6538 (ATCC 6538); 1 µM (≈ 2.51 µg/mL) with S. epidermidis NRS 101 (NRS 101); 2 µM (≈ 5.02 µg/mL) with VRSA 5; 2 µM (≈ 5.02 µg/mL) in the test with VRSA 10; 4 µM (≈ 10 µg/mL) against P. aeruginosa 48982 (48982); 2 µM (≈ 5.02 µg/mL) in the test on P. aeruginosa 31040 (31040). In addition, the MIC was found to be 2 µM (≈ 5.02 µg/mL) against P. aeruginosa 31041 (31041); 0.5 µM (≈ 1.26 µg/mL) in the test with A. baumannii 1747 (1747); 1 µM (≈ 2.51 µg/mL) against A baumannii 19606 (19606); 2 µM (≈ 5.02 µg/mL) in the test on L. monocytogenes 191112 (191112); 1 µM (≈ 2.51 µg/mL) against S. enteritidis; 1 µM (≈ 2.51 µg/mL) with E. coli 21922 (21922). This compound came in with an MIC against S. typhimurium LT2 (LT2) of 1 µM (≈ 2.51 µg/mL).

On to `CC(C)CO[C@@H]1C[C@@H](C(=O)N2C[C@H](OCCCNC(=N)N)C[C@H]2C(=O)N2C[C@H](OCCCNC(=N)N)C[C@H]2C(=O)N2C[C@H](OCC(C)C)C[C@H]2C(=O)N2C[C@H](OCCCNC(=N)N)C[C@H]2C(=O)N2C[C@H](OCCCNC(=N)N)C[C@H]2C(=O)N2C[C@H](OCC(C)C)C[C@H]2C(=O)N2C[C@H](OCCCNC(=N)N)C[C@H]2C(=O)N2C[C@H](OCCCNC(=N)N)C[C@H]2C(=O)N2C[C@H](OCC(C)C)C[C@H]2C(=O)N2C[C@H](OCCCNC(=N)N)C[C@H]2C(=O)N2C[C@H](OCCCNC(=N)N)C[C@H]2C(=O)N2C[C@H](OCC(C)C)C[C@H]2C(N)=O)N(C(=O)CNC(=O)c2ccc(-c3c4ccc(=O)cc-4oc4cc(O)ccc34)c(C(=O)O)c2)C1` [Example P14-LRR] (X1-G[Hyp](Isobutyl)[Hyp](Propyl(3-guanidino))[Hyp](Propyl(3-guanidino))[Hyp](Isobutyl)[Hyp](Propyl(3-guanidino))[Hyp](Propyl(3-guanidino))[Hyp](Isobutyl)[Hyp](Propyl(3-guanidino))[Hyp](Propyl(3-guanidino))[Hyp](Isobutyl)[Hyp](Propyl(3-guanidino))[Hyp](Propyl(3-guanidino))[Hyp](Isobutyl)-NH2; N-terminus and C-terminus assumed), for which the MIC was 2 µM (≈ 5.95 µg/mL) with E. faecium 700221 (700221); 16 µM (≈ 47.6 µg/mL) against S. aureus NRS 384 (NRS 384); over 32 µM against K. pneumoniae 1706 (1706); 32 µM (≈ 95.2 µg/mL) in the test with K. pneumonia NR 41920; over 32 µM in the test with K. pneumonia NR 41928; 1 µM (≈ 2.98 µg/mL) against A. baumannii 1605 (1605). Also, the MIC with P. aeruginosa 50573 (50573) came to 16 µM (≈ 47.6 µg/mL); against E. cloacae 1134 (1134) it was 32 µM (≈ 95.2 µg/mL); in the test with S. aureus NRS 383 (NRS 383), 32 µM (≈ 95.2 µg/mL); in the test on S. aureus NRS 382 (NRS 382) it was 32 µM (≈ 95.2 µg/mL); in the test with S. aureus ATCC 6538 (ATCC 6538), 16 µM (≈ 47.6 µg/mL); with S. epidermidis NRS 101 (NRS 101) it was 2 µM (≈ 5.95 µg/mL). The minimal inhibitory concentration (MIC) worked out at 32 µM (≈ 95.2 µg/mL) in the test with P. aeruginosa 48982 (48982); 32 µM (≈ 95.2 µg/mL) in the test on P. aeruginosa 31040 (31040); 32 µM (≈ 95.2 µg/mL) against P. aeruginosa 31041 (31041); 1 µM (≈ 2.98 µg/mL) in the test on A. baumannii 1747 (1747); 2 µM (≈ 5.95 µg/mL) against A baumannii 19606 (19606); 8 µM (≈ 23.8 µg/mL) with L. monocytogenes 191112 (191112). Moreover, the figures for the minimal inhibitory concentration (MIC) in the test on S. enteritidis, with E. coli 21922 (21922) and in the test with S. typhimurium LT2 (LT2) were 4 µM (≈ 11.9 µg/mL), 4 µM (≈ 11.9 µg/mL) and 16 µM (≈ 47.6 µg/mL), respectively.

Turning to gentamicin, the MIC was 0.5 µM with S. aureus RN 4220; 0.5 µM in the test on S. flexneri 1a; over 32 µM in the test with E. faecium 700221 (E. faecium 700221, ESKAPE pathogens); 0.5 µM in the test on S. aureus NRS 384 (S. aureus NRS 384, ESKAPE pathogens); 2 µM against K. pneumoniae 1706 (K. pneumoniae 1706, ESKAPE pathogens); 1 µM against K. pneumonia NR 41920 (K. pneumonia NR 41920, ESKAPE pathogens). Further, the MIC was 1 µM against K. pneumonia NR 41928 (K. pneumonia NR 41928, ESKAPE pathogens); over 32 µM in the test with A. baumannii 1605 (A. baumannii 1605, ESKAPE pathogens); 0.25 µM against P. aeruginosa 50573 (P. aeruginosa 50573, ESKAPE pathogens); 0.5 µM against E. cloacae 1134 (E. cloacae 1134, ESKAPE pathogens); over 32 µM against S. aureus NRS 383 (S. aureus NRS 383); 0.5 µM with S. aureus NRS 382 (S. aureus NRS 382). Moreover, the MIC against S. aureus ATCC 6538 (S. aureus ATCC 6538) is 0.125 µM; against S. epidermidis NRS 101 (S. epidermidis NRS 101), 32 µM; in the test with VRSA 5 it was 0.5 µM; against VRSA 10 it was 0.5 µM; with P. aeruginosa 48982 (P. aeruginosa 48982) it was over 32 µM; with P. aeruginosa 31040 (P. aeruginosa 31040), 16 µM. The MIC in the test with P. aeruginosa 31041 (P. aeruginosa 31041) was determined as 32 µM; against A. baumannii 1747 (A. baumannii 1747) it was 0.25 µM; against A baumannii 19606 (A baumannii 19606) it was 16 µM; in the test with L. monocytogenes 191112 (L. monocytogenes 191112, enteric pathogens), 0.5 µM; against S. enteritidis (S. enteritidis, enteric pathogens), 0.25 µM; in the test on E. coli 21922 (E. coli 21922, enteric pathogens), 2 µM. In addition, the minimal inhibitory concentration (MIC) with S. typhimurium LT2 (S. typhimurium LT2, enteric pathogens) was 0.5 µM.
